Assay results published in paper PMC7660650, “Chemical Starting Matter for HNF4α Ligand Discovery and Chemogenomics” (International Journal of Molecular Sciences, 2020).
Where “and” joins values, the source holds several entries; their conditions need not be identical. Equal entries are not always repeated.

The compounds below were run against T1, Gal4-HNF4α (human HNF4α LBD) (Homo sapiens, UniProt P41235) (assay: Hybrid Gal4-HNF4α reporter gene assay in transiently transfected HEK293T cells). Conditions: Table S1, primary screening, 50 µM.
T1 construct: uniprot entry: P41235-1, residues 142-377; expressed in transfected cells; host or cells: HEK293T
T1 sequence (P41235 142-377): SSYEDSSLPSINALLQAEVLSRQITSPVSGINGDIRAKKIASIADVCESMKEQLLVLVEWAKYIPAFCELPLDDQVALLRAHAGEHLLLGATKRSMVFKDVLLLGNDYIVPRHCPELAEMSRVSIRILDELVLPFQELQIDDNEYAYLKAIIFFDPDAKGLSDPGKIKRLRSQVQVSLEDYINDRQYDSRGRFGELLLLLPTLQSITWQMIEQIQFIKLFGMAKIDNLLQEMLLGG
Format: cell-based

Compound	HNF4a-screening_activity_(mean_of_n=2)
OCCOc1cccc2[nH]ccc12 [Prestw-Frag-1595, OCCOc1cccc2[nH]ccc12]	0.8145 and 1.05
CCN1CCCC1CNC(=O)c1ccc(N)cc1 (stereo not drawn) [Prestw-Frag-1632, CCN1CCCC1CNC(=O)c1ccc(N)cc1]	0.8541
NCCc1c[nH]c2ccc(O)cc12 [Prestw-Frag-1643, NCCc1c[nH]c2ccc(O)cc12]	1.007
Oc1ccc2[nH]ccc2c1 [Prestw-Frag-1645, Oc1ccc2[nH]ccc2c1]	1.016
Cc1cc(N)no1 [Prestw-Frag-1647, Cc1cc(N)no1]	0.9773
Nc1ccnn1-c1ccccc1 [Prestw-Frag-1648, Nc1ccnn1-c1ccccc1]	1.023
OC(c1ccccc1)(c1ccccc1)C1CCNCC1 [Prestw-Frag-1654, OC(C1CCNCC1)(c1ccccc1)c1ccccc1]	1.142 and 1.152
NC(=O)CN1C(=O)c2ccccc2C1=O [Prestw-Frag-1661, NC(=O)CN1C(=O)c2ccccc2C1=O]	1.028
Cc1ccc(S(=O)(=O)NC(N)=O)cc1 [Prestw-Frag-1667, Cc1ccc(cc1)S(=O)(=O)NC(N)=O]	1.077
O=c1[nH]nc2ccccn12 [Prestw-Frag-1673, O=c1[nH]nc2ccccn12]	1.045
O=C(O)C(CO)c1ccccc1 (stereo not drawn) [Prestw-Frag-1686, OCC(C(O)=O)c1ccccc1]	1.109
CC(N)COc1ccccc1 (stereo not drawn) [Prestw-Frag-1691, CC(N)COc1ccccc1]	0.7151 and 1.122
c1cc2c(s1)CCNC2 [Prestw-Frag-1694, C1Cc2sccc2CN1]	1.028 and 1.127
Clc1cccc(CN2CCNCC2)c1 [Prestw-Frag-1700, Clc1cccc(CN2CCNCC2)c1]	1.014 and 1.092
Clc1ccc(-c2cncnc2)cc1 [Prestw-Frag-1704, Clc1ccc(cc1)-c1cncnc1]	0.9459 and 1.223
CCCC(=O)Nc1ccc(O)c(C(C)=O)c1 [Prestw-Frag-1716, CCCC(=O)Nc1ccc(O)c(c1)C(C)=O]	0.8359
CCCC(=O)Nc1cccc(C(C)=O)c1 [Prestw-Frag-1717, CCCC(=O)Nc1cccc(c1)C(C)=O]	0.9496 and 0.8871
c1ccc2c(c1)CNc1ccccc1C2 [Prestw-Frag-1722, C1Nc2ccccc2Cc2ccccc12]	1.196 and 1.047
COc1cc(C(N)=O)cc(OC)c1OC [Prestw-Frag-1731, COc1cc(cc(OC)c1OC)C(N)=O]	0.8442
CCN(CC)CCOC(=O)c1ccccc1 [Prestw-Frag-1735, CCN(CC)CCOC(=O)c1ccccc1]	0.9109 and 1.027
O=C1CCOc2ccccc21 [Prestw-Frag-1740, O=C1CCOc2ccccc12]	0.9806
Clc1ccc(C(c2ccccc2)N2CCNCC2)cc1 (stereo not drawn) [Prestw-Frag-1741, Clc1ccc(cc1)C(N1CCNCC1)c1ccccc1]	1.086
CC(=O)NCc1cccnc1 [Prestw-Frag-1745, CC(=O)NCc1cccnc1]	0.9231 and 1.026

Compound	HNF4a-screening_activity_(mean_of_n=2)
O=C(NCc1cccnc1)c1ccc(O)cc1 [Prestw-Frag-1747, Oc1ccc(cc1)C(=O)NCc1cccnc1]	0.7115 and 0.9722
CC(=O)Nc1ncc([N+](=O)[O-])s1 [Prestw-Frag-1750, CC(=O)Nc1ncc(s1)[N+]([O-])=O]	1.04 and 0.8827
O=C(O)CCCc1ccc(-c2ccccc2)cc1 [Prestw-Frag-1767, OC(=O)CCCc1ccc(cc1)-c1ccccc1]	0.6264
Fc1cccc(F)c1N1CCNCC1 [Prestw-Frag-1806, Fc1cccc(F)c1N1CCNCC1]	0.9867 and 1.428
COc1ccc(OCC(N)=O)cc1 [Prestw-Frag-1812, COc1ccc(OCC(N)=O)cc1]	0.9996 and 1.207
c1ccc(C(c2ccccc2)N2CCCNCC2)cc1 [Prestw-Frag-1817, C1CNCCN(C1)C(c1ccccc1)c1ccccc1]	0.7059 and 1.011
NC(=O)COc1ccc(Cl)cc1 [Prestw-Frag-1833, NC(=O)COc1ccc(Cl)cc1]	1.468 and 0.8655
Cc1ccccc1NC(=O)C(C)N (stereo not drawn) [Prestw-Frag-1856, CC(N)C(=O)Nc1ccccc1C]	1.062 and 1.114
CS(=O)(=O)Nc1ccccc1Oc1ccccc1 [Prestw-Frag-1861, CS(=O)(=O)Nc1ccccc1Oc1ccccc1]	1.046 and 0.7818
COC(=O)C(O)(c1ccccc1)C1CCCCC1 (stereo not drawn) [Prestw-Frag-1867, COC(=O)C(O)(C1CCCCC1)c1ccccc1]	1.91 and 1.155
O=C1Nc2ccccc2Nc2ccccc21 [Prestw-Frag-1904, O=C1Nc2ccccc2Nc2ccccc12]	1.665 and 0.9141
CCCOc1ccccc1C(=N)N [Prestw-Frag-1910, CCCOc1ccccc1C(N)=N]	1.045 and 1.109
NCCOC(c1ccc(F)cc1)c1ccc(F)cc1 [Prestw-Frag-1925, NCCOC(c1ccc(F)cc1)c1ccc(F)cc1]	1.095 and 1.195
CC(C)(C)NCC(O)c1ccccc1 (stereo not drawn) [Prestw-Frag-1929, CC(C)(C)NCC(O)c1ccccc1]	1.143
OCCCN1CCN(c2ccccc2)CC1 [Prestw-Frag-1944, OCCCN1CCN(CC1)c1ccccc1]	1.133
OCCN1CCN(c2ccccc2)CC1 [Prestw-Frag-1945, OCCN1CCN(CC1)c1ccccc1]	1.061
CN1CCN(c2ccccc2)CC1 [Prestw-Frag-1946, CN1CCN(CC1)c1ccccc1]	1.048
O=C(CCN1CCCCC1)c1ccccc1 [Prestw-Frag-1953, O=C(CCN1CCCCC1)c1ccccc1]	0.8568
NS(=O)(=O)c1ccc(Cl)cc1 [Prestw-Frag-1977, NS(=O)(=O)c1ccc(Cl)cc1]	0.8584
CCN(CC)CCOc1ccc(C(C)=O)cc1 [Prestw-Frag-2005, CCN(CC)CCOc1ccc(cc1)C(C)=O]	1.006
O=C(O)C1(c2ccccc2)CCCC1 [Prestw-Frag-2049, OC(=O)C1(CCCC1)c1ccccc1]	0.9983
NS(=O)(=O)c1ccc(C(=O)O)cc1 [Prestw-Frag-2123, NS(=O)(=O)c1ccc(cc1)C(O)=O]	0.9355
CC(C)NCC(O)c1ccccc1 (stereo not drawn) [Prestw-Frag-2168, CC(C)NCC(O)c1ccccc1]	1.078

Compound	HNF4a-screening_activity_(mean_of_n=2)
COc1ccc(OC)c(C(C)O)c1 (stereo not drawn) [Prestw-Frag-2208, COc1ccc(OC)c(c1)C(C)O]	1.098
COc1ccc(CN2CCNCC2)cc1 [Prestw-Frag-2212, COc1ccc(CN2CCNCC2)cc1]	1.195
CS(=O)(=O)c1ccc(CO)cc1 [Prestw-Frag-2234, CS(=O)(=O)c1ccc(CO)cc1]	0.954
CC(O)(c1ccccc1)c1ccccn1 (stereo not drawn) [Prestw-Frag-2237, CC(O)(c1ccccc1)c1ccccn1]	0.9394
OC(c1ccccc1)c1ccccn1 (stereo not drawn) [Prestw-Frag-2238, OC(c1ccccc1)c1ccccn1]	0.8728
CCCCOc1cc(C(=O)OC)ccc1N [Prestw-Frag-2253, CCCCOc1cc(ccc1N)C(=O)OC]	0.8932
Nc1nc2ccccc2o1 [Prestw-Frag-2256, Nc1nc2ccccc2o1]	0.8277
NC(=O)c1nc[nH]c1N [Prestw-Frag-2268, NC(=O)c1nc[nH]c1N]	0.9961
OCc1ccncc1 [Prestw-Frag-2303, OCc1ccncc1]	0.9833
N=C(N)CSCc1ccccc1 [Prestw-Frag-2348, NC(=N)CSCc1ccccc1]	1.134
Clc1ccc(CNc2ccccn2)cc1 [Prestw-Frag-2356, Clc1ccc(CNc2ccccn2)cc1]	1.16
O=C1c2ccccc2CN1c1ccccc1 [Prestw-Frag-2360, O=C1N(Cc2ccccc12)c1ccccc1]	1.345
CCC(=O)Nc1ccc(CC(=O)O)cc1 [Prestw-Frag-2362, CCC(=O)Nc1ccc(CC(O)=O)cc1]	0.9958
NC(=O)C(c1ccccc1)c1ccccc1 [Prestw-Frag-2366, NC(=O)C(c1ccccc1)c1ccccc1]	0.8824
O=C(O)CCC(=O)Nc1ccccc1 [Prestw-Frag-2383, OC(=O)CCC(=O)Nc1ccccc1]	0.9265
COC(=O)C(O)c1ccccc1 (stereo not drawn) [Prestw-Frag-2423, COC(=O)C(O)c1ccccc1]	1.193
CCN(CCCCO)C(C)Cc1ccc(OC)cc1 (stereo not drawn) [Prestw-Frag-2440, CCN(CCCCO)C(C)Cc1ccc(OC)cc1]	1.361
Nc1ccccn1 [Prestw-Frag-2443, Nc1ccccn1]	1.112
COCCOC(=O)c1ccc(N)cc1 [Prestw-Frag-2453, COCCOC(=O)c1ccc(N)cc1]	1.565
O=C1CCc2ccccc2N1 [Prestw-Frag-2464, O=C1CCc2ccccc2N1]	1.314
Nc1ccccc1S(N)(=O)=O [Prestw-Frag-2473, Nc1ccccc1S(N)(=O)=O]	1.395
CCOc1ccccn1 [Prestw-Frag-2477, CCOc1ccccn1]	1.372
COC(=O)C(O)(c1ccccc1)C1CCCC1 (stereo not drawn) [Prestw-Frag-2484, COC(=O)C(O)(C1CCCC1)c1ccccc1]	1.411
